Test results published in patent US11969428B2, “Methods and pharmaceutical compositions for treating lymphoid malignancy” (priority 2011, dated 2024).

Key:
Test in all cases: Ambit KinomeScan screening
Format in all cases: binding
Conditions in all cases: CAL-130 10 μM
ABL1(Q252H) = target: T1, ABL1(Q252H) (Homo sapiens, UniProt P00519, Q252H)
T1 construct: unspecified tag ("tagged kinases"); purchased Ambit (KinomeScan screening)
In short: (§1)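 Displacement of tagged kinase from bait ligand on solid support was assessed using 10 μM CAL-130. Each value is the fraction of control binding retained, expressed in percent; a cutoff of >35% defines no hit.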

ACVR1B = target: T2, ACVR1B (Homo sapiens, UniProt P36896)
T2 construct: unspecified tag ("tagged kinases"); purchased Ambit (KinomeScan screening)
In short: as §1

AURKB = target: T3, AURKB (Homo sapiens, UniProt Q96GD4)
T3 construct: purchased Ambit (KinomeScan screening service)
In short: as §1

CAMK1D = target: T4, CAMK1D (Homo sapiens, UniProt Q8IU85)
T4 construct: unspecified tag ("tagged kinases"); purchased Ambit (KinomeScan screening)
In short: as §1

CAMK2D = target: T5, CAMK2D (Homo sapiens, UniProt Q13557)
T5 construct: purchased Ambit (KinomeScan screening)
In short: as §1

CAMKK1 = target: T6, CAMKK1 (Homo sapiens, UniProt Q8N5S9)
T6 construct: purchased Ambit (KinomeScan screening)
In short: as §1

CDKL2 = target: T7, CDKL2 (Homo sapiens, UniProt Q92772)
T7 construct: purchased Ambit (KinomeScan screening service)
In short: as §1

CDKL3 = target: T8, CDKL3 (Homo sapiens, UniProt Q8IVW4)
T8 construct: purchased Ambit (KinomeScan screening service)
In short: as §1

CDKL5 = target: T9, CDKL5 (Homo sapiens, UniProt O76039)
T9 construct: purchased Ambit (KinomeScan screening service)
In short: as §1

CHEK1 = target: T10, CHEK1 (Homo sapiens, UniProt O14757)
T10 construct: purchased Ambit (KinomeScan screening service)
In short: as §1

CLK1 = target: T11, CLK1 (Homo sapiens, UniProt P49759)
T11 construct: purchased Ambit (KinomeScan screening service)
In short: as §1

EPHA2 = target: T12, EPHA2 (Homo sapiens, UniProt P29317)
T12 construct: purchased Ambit (KinomeScan screening service)
In short: as §1

EPHB2 = target: T13, EPHB2 (Homo sapiens, UniProt P29323)
T13 construct: purchased Ambit (KinomeScan screening service)
In short: as §1

ERK3 = target: T14, ERK3 (Homo sapiens, UniProt Q16659)
T14 construct: unspecified tag ("tagged kinases"); purchased Ambit (KinomeScan screening service)
In short: as §1

GRK4 = target: T15, GRK4 (Homo sapiens, UniProt P32298)
T15 construct: unspecified tag ('tagged kinases'); purchased Ambit (KinomeScan screening service)
In short: as §1

HIPK2 = target: T16, HIPK2 (Homo sapiens, UniProt Q9H2X6)
T16 construct: unspecified tag ('tagged kinases'); purchased Ambit (KinomeScan screening service)
In short: as §1

HUNK = target: T17, HUNK (Homo sapiens, UniProt P57058)
T17 construct: Ambit (KinomeScan screening)
In short: as §1

JNK2 = target: T18, JNK2 (Homo sapiens, UniProt P45984)
T18 construct: purchased Ambit (KinomeScan screening)
In short: as §1

LATS1 = target: T19, LATS1 (Homo sapiens, UniProt O95835)
T19 construct: unspecified tag ('tagged kinases'); purchased Ambit (KinomeScan screening service)
In short: as §1

LOK = target: T20, LOK (Homo sapiens, UniProt O94804)
T20 construct: unspecified tag ('tagged kinases'); purchased Ambit (KinomeScan screening service)
In short: as §1

LZK = target: T21, LZK (Homo sapiens, UniProt O43283)
T21 construct: unspecified tag ('tagged kinases'); purchased Ambit (KinomeScan screening service)
In short: as §1

MERTK = target: T22, MERTK (Homo sapiens, UniProt Q12866)
T22 construct: purchased Ambit (KinomeScan screening)
In short: as §1

MET(M1250T) = target: T23, MET(M1250T) (Homo sapiens, UniProt P08581, M1250T)
T23 construct: purchased Ambit (KinomeScan screening)
In short: as §1

NLK = target: T24, NLK (Homo sapiens, UniProt Q9UBE8)
T24 construct: purchased Ambit (KinomeScan screening service)
In short: as §1

PAK7 = target: T25, PAK7 (Homo sapiens, UniProt Q9P286)
T25 construct: unspecified tag ('tagged kinases'); purchased Ambit (KinomeScan screening)
In short: as §1

PRKD1 = target: T26, PRKD1 (Homo sapiens, UniProt Q15139)
T26 construct: purchased Ambit (KinomeScan screening service)
In short: as §1

PRKD2 = target: T27, PRKD2 (Homo sapiens, UniProt Q9BZL6)
T27 construct: purchased Ambit (KinomeScan screening service)
In short: as §1

PRKX = target: T28, PRKX (Homo sapiens, UniProt P51817)
T28 construct: tag (kind not specified); purchased Ambit (KinomeScan screening service)
In short: as §1

RAF1 = target: T29, RAF1 (Homo sapiens, UniProt P04049)
T29 construct: tag (kind not specified); purchased Ambit (KinomeScan screening service)
In short: as §1

RIOK2 = target: T30, RIOK2 (Homo sapiens, UniProt Q9BVS4)
T30 construct: unspecified tag (tagged kinase); purchased Ambit (KinomeScan screening)
In short: as §1

RPS6KA4 = target: T31, RPS6KA4 (Homo sapiens, UniProt O75676)
T31 construct: tag, kind not specified; purchased Ambit (KinomeScan screening service)
In short: as §1

TTK = target: T32, TTK (Homo sapiens, UniProt P33981)
T32 construct: tag, kind not specified; purchased Ambit (KinomeScan screening service)
In short: as §1

YANK2 = target: T33, YANK2 (Homo sapiens, UniProt Q9NY57)
T33 construct: purchased Ambit (KinomeScan screening service)
In short: as §1

ZAK = target: T34, ZAK (Homo sapiens, UniProt Q9NYL2)
T34 construct: purchased Ambit (KinomeScan screening service)
In short: as §1

ZAP70 = target: T35, ZAP70 (Homo sapiens, UniProt P43403)
T35 construct: purchased Ambit (KinomeScan screening service)
In short: as §1

p38-γ = target: T36, p38-γ (Homo sapiens, UniProt P53778)
T36 construct: purchased Ambit (KinomeScan screening service)
In short: as §1

p38-δ = target: T37, p38-δ (Homo sapiens, UniProt O15264)
T37 construct: purchased Ambit (KinomeScan screening service)
In short: as §1

T37 sequence (O15264 whole entry): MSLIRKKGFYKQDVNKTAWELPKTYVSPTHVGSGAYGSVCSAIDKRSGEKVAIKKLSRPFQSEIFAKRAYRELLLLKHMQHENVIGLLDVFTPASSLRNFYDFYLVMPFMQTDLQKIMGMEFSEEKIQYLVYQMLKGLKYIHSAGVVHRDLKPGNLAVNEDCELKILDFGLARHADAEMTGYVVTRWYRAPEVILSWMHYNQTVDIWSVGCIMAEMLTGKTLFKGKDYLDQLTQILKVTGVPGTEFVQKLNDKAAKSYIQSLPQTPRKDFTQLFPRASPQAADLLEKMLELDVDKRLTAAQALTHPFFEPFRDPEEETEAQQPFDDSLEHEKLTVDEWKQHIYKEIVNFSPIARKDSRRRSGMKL
T30 sequence (Q9BVS4 whole entry): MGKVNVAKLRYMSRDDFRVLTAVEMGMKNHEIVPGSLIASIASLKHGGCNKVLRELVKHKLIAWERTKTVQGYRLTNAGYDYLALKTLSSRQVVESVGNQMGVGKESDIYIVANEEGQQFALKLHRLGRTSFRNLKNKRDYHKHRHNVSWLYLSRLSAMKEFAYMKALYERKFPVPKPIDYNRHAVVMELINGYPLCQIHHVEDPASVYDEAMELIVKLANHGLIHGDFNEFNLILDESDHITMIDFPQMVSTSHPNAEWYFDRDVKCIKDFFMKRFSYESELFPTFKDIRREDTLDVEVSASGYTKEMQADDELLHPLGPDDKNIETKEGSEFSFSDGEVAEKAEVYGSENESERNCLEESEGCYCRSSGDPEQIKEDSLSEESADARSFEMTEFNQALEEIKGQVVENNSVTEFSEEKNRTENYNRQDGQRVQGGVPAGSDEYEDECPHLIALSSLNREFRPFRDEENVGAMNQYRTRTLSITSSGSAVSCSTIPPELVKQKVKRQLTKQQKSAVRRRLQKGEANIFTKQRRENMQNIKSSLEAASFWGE
T14 sequence (Q16659 whole entry): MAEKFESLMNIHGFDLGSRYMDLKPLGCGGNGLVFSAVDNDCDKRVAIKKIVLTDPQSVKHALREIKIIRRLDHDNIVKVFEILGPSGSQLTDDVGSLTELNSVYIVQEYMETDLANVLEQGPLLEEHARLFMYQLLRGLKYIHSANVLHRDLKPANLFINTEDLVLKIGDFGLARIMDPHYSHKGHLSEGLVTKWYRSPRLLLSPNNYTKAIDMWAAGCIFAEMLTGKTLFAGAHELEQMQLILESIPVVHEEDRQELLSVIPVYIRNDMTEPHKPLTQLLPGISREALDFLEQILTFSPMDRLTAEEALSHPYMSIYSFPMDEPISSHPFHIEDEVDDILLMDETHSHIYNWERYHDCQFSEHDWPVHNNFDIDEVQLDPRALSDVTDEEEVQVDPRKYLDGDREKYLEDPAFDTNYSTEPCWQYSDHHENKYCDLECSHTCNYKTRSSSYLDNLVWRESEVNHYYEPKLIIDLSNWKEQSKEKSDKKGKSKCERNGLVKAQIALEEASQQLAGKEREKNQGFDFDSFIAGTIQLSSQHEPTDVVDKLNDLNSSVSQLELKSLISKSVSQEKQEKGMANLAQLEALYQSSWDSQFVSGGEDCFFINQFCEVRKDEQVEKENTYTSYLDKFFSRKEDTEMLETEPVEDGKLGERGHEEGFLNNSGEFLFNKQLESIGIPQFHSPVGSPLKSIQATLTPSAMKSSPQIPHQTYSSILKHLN
T10 sequence (O14757 whole entry): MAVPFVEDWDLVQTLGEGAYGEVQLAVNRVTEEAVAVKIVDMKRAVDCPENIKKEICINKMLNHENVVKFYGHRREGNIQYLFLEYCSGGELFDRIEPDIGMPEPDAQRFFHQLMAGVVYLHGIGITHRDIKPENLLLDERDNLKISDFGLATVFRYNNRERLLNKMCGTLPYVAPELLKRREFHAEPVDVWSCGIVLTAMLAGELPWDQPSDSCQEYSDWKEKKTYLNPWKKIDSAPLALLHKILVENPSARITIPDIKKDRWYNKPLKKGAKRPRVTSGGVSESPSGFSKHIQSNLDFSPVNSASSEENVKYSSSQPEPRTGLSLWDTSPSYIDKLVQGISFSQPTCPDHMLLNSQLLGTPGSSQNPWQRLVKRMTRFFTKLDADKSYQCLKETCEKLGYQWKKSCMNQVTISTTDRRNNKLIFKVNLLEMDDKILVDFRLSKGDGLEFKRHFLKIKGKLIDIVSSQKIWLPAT
T20 sequence (O94804 whole entry): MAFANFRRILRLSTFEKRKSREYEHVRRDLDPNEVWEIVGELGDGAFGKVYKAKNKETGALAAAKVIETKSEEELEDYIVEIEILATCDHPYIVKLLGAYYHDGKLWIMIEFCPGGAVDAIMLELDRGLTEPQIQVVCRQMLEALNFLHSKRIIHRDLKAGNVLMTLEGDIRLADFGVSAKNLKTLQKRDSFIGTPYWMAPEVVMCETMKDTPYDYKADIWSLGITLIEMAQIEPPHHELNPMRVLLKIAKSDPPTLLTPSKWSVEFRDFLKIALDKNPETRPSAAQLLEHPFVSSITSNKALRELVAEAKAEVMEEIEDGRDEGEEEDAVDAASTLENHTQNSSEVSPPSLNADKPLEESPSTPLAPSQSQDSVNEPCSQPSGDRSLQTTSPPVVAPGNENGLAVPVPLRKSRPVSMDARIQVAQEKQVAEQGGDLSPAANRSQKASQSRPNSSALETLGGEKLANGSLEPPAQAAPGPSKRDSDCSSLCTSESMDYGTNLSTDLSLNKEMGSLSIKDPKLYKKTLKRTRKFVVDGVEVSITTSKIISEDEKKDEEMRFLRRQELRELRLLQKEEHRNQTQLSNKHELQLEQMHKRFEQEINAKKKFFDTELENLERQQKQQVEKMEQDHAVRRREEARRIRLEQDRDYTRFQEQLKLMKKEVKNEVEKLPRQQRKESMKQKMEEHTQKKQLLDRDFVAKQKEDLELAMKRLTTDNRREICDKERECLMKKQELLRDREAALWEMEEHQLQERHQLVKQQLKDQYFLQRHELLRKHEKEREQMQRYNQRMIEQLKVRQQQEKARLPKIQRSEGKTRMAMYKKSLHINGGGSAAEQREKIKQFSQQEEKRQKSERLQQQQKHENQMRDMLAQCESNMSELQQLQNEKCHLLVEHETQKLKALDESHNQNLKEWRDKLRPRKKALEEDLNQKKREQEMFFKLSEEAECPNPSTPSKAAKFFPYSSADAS
T35 sequence (P43403 whole entry): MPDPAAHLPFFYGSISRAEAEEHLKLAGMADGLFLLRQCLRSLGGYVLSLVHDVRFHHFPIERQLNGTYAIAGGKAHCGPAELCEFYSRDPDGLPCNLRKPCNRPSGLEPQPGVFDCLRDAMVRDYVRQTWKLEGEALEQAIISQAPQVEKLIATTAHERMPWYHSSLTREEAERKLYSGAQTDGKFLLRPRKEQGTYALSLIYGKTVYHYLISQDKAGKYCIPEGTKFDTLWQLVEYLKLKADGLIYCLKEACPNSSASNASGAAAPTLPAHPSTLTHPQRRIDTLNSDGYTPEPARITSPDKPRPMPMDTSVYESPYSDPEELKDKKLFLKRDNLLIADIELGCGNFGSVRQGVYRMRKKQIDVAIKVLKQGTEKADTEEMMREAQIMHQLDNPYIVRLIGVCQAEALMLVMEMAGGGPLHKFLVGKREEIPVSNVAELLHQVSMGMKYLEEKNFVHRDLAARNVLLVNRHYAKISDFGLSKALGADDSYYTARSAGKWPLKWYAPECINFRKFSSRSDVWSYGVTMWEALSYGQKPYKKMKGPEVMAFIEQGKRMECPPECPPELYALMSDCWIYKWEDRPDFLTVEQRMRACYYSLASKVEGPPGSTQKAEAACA
T25 sequence (Q9P286 whole entry): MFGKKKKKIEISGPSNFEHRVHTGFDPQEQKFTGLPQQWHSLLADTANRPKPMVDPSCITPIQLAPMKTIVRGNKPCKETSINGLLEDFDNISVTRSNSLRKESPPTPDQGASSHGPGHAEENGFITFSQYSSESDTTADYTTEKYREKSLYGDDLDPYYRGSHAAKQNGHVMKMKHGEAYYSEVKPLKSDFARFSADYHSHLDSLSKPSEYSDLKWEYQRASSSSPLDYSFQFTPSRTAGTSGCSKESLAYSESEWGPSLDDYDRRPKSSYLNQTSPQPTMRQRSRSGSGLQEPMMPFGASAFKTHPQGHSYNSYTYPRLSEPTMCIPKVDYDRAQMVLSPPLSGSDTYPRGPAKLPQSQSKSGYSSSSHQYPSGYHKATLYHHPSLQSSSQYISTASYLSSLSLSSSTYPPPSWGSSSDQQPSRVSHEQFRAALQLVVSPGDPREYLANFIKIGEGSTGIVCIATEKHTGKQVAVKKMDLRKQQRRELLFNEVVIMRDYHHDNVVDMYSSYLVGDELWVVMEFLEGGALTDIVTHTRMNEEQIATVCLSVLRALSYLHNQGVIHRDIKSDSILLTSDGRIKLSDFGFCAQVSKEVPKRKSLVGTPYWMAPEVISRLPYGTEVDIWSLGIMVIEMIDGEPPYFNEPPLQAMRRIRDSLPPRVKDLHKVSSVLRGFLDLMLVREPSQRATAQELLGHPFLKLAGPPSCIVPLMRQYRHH
T3 sequence (Q96GD4 whole entry): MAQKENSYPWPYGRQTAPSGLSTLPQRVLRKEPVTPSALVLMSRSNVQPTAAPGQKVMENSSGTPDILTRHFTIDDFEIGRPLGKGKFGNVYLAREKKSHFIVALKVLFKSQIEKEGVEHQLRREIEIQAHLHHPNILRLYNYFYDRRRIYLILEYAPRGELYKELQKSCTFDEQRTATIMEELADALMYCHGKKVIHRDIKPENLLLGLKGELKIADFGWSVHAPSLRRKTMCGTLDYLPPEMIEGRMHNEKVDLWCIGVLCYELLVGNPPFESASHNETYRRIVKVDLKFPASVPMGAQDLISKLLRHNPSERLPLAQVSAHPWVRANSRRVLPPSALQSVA

With Cc1ccccc1-n1c(C(C)Nc2nc(N)nc3nc[nH]c23)nc2cccc(C)c2c1=O (stereo not shown) [CAL-130] the “Percent of Control Binding” value (ABL1(Q252H)) was 100%, the “Percent of Control Binding” value (ACVR1B) was 100% and the “Percent of Control Binding” value (AURKB) was 100%. For the same compound, the “Percent of Control Binding” value (CAMK1D) was 100%, the “Percent of Control Binding” value (CAMK2D) was 100% and the “Percent of Control Binding” value (CAMKK1) was 100%. For the same compound, the “Percent of Control Binding” value (CDKL2) was 100%, the “Percent of Control Binding” value (CDKL3) was 100% and the “Percent of Control Binding” value (CDKL5) was 100%. The “Percent of Control Binding” value (CHEK1) was 100%, the “Percent of Control Binding” value (CLK1) was 100% and the “Percent of Control Binding” value (EPHA2) was 100%. The “Percent of Control Binding” value (EPHB2) was 100%, the “Percent of Control Binding” value (ERK3) was 100% and the “Percent of Control Binding” value (GRK4) was 100%. For the same compound, the “Percent of Control Binding” value (HIPK2) was 100%, the “Percent of Control Binding” value (HUNK) was 100% and the “Percent of Control Binding” value (JNK2) was 100%. For the same compound, the “Percent of Control Binding” value (LATS1) was 100%, the “Percent of Control Binding” value (LOK) was 100% and the “Percent of Control Binding” value (LZK) was 100%. The “Percent of Control Binding” value (MERTK) was 100%, the “Percent of Control Binding” value (MET(M1250T)) was 100% and the “Percent of Control Binding” value (NLK) was 100%. For the same compound, the “Percent of Control Binding” value (PAK7) was 100%, the “Percent of Control Binding” value (PRKD1) was 100% and the “Percent of Control Binding” value (PRKD2) was 100%. For the same compound, the “Percent of Control Binding” value (PRKX) was 100%, the “Percent of Control Binding” value (RAF1) was 100% and the “Percent of Control Binding” value (RIOK2) was 100%. For the same compound, the “Percent of Control Binding” value (RPS6KA4) was 100%, the “Percent of Control Binding” value (TTK) was 11% and the “Percent of Control Binding” value (YANK2) was 100%. The “Percent of Control Binding” value (ZAK) was 100%, the “Percent of Control Binding” value (ZAP70) was 100% and the “Percent of Control Binding” value (p38-γ) was 100%. For the same compound, the “Percent of Control Binding” value (p38-δ) was 100%.
